The record followed here is ChEMBL document CHEMBL1136959, “Hit-to-lead optimization of pyrrolo[1,2-a]quinoxalines as novel cannabinoid type 1 receptor antagonists” (Bioorg Med Chem Lett, 2009).

Assay [1] deals with Cannabinoid receptor 1 (Rattus norvegicus) (UniProt P20272). Put plainly: Displacement of [3H]SR141716A from CB1 receptor in rat cerebellum membrane at 1 uM. It is filed as cell membranes. For orientation: Displacement assays read how much labelled ligand stays bound in the presence of the test substance.
Sequence of Cannabinoid receptor 1 (Rattus norvegicus) (P20272 whole entry): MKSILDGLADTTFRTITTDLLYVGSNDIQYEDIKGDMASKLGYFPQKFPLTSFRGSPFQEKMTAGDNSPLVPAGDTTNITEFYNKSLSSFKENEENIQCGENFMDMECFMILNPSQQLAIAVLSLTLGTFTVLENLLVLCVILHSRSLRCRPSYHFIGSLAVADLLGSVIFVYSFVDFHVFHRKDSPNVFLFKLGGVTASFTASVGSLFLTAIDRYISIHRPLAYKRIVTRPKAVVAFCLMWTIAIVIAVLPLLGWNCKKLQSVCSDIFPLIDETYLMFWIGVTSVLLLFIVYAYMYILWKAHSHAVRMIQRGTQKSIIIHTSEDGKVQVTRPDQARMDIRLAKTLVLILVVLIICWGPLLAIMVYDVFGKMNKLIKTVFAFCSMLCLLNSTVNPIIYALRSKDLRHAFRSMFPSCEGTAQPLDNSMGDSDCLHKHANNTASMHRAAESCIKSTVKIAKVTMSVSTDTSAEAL
For the next assay, the target named is Cannabinoid receptor 1 (Rattus norvegicus, UniProt P20272). Put plainly: Displacement of [3H]SR141716A from CB1 receptor in rat cerebellum membrane. It is filed as cell membranes.
Sequence of Cannabinoid receptor 1 (P20272 whole entry): as above

On to `CCCCN(CC(=O)N1c2ccccc2-n2cccc2C1c1ccccc1OC)C(=O)C(C)Cl` (centres undefined), for which, in assay [1], the inhibition (in general, the percentage by which the read-out fell short of the control) came out at 36%. `CCCCN(CC(=O)N1c2ccccc2-n2cccc2C1c1ccc(OC)cc1)C(=O)C(C)C` (centres undefined): at Cannabinoid receptor 1, affinity was put at a Ki of 124 nM.

Turning to `CCCCN(CC(=O)N1c2ccccc2-n2cccc2C1c1ccc(OC)cc1)C(=O)c1cc(Cl)cc(Cl)c1` (centres undefined), the affinity at Cannabinoid receptor 1 corresponds to a Ki of 831 nM. Take `CCCCN(CC(=O)N1c2ccccc2-n2cccc2C1c1ccccc1)C(=O)C(C)Cl` (centres undefined): affinity on Cannabinoid receptor 1 was put at a Ki of 260 nM. `CCCCN(CC(=O)N1c2ccccc2-n2cccc2C1c1ccc(OC)cc1)C(=O)c1ccccc1F` (centres undefined): the Ki (commonly a measure of affinity in units of concentration, obtained from inhibition or displacement) at Cannabinoid receptor 1 came to 349 nM.

On to `CCCCN(CC(=O)N1c2ccccc2-n2cccc2C1c1ccc(OC)cc1)C(=O)COC` (centres undefined), for which, at Cannabinoid receptor 1, the Ki stood at 461 nM.

On Cannabinoid receptor 1, `CCCCN(CC(=O)N1c2ccccc2-n2cccc2C1c1ccc(OC)cc1)C(=O)c1ccccc1Cl` (centres undefined) came in with a Ki of 137 nM. In turn, `COc1ccc(C2c3cccn3-c3ccccc3N2C(=O)CN(C(=O)C(C)Cl)C2CC2)cc1` (centres undefined) showed an inhibition in assay [1] of 40%. As for `CCCCN(CC(=O)N1c2ccccc2-n2cccc2C1c1ccc(OC)cc1)C(=O)C1CCC1` (centres undefined), the inhibition constant (Ki) on Cannabinoid receptor 1 came out at 214 nM. In other words, the sub-micromolar range.

As to `CCCCN(CC(=O)N1c2ccccc2-n2cccc2C1c1ccc(OC)cc1)C(=O)CC` (centres undefined), the Ki at Cannabinoid receptor 1 was found to be 539 nM. `CCCCN(CC(=O)N1c2ccccc2-n2cccc2C1c1ccc(OC)cc1)C(=O)c1ccccc1C` (centres undefined) showed a Ki at Cannabinoid receptor 1 of 503 nM. Consider `CCCCN(CC(=O)N1c2ccccc2-n2cccc2C1C)C(=O)C(C)Cl` (centres undefined), for which the inhibition in assay [1] is 15%. The compound `COc1ccc(C2c3cccn3-c3ccccc3N2C(=O)CN(C(=O)C(C)Cl)C(C)C)cc1` (centres undefined) had a Ki on Cannabinoid receptor 1 of 220 nM.

In turn, `CCCCN(CC(=O)N1c2ccccc2-n2cccc2C1c1ccc(Cl)cc1)C(=O)C(C)Cl` (centres undefined) returned a Ki at Cannabinoid receptor 1 of 45 nM.

For `CCCCN(CC(=O)N1c2ccccc2-n2cccc2C1c1ccc(OC)cc1)C(C)=O` (centres undefined), in assay [1], the inhibition came out at 31%. For the compound `CCCCN(CC(=O)N1c2ccccc2-n2cccc2C1c1ccc(OC)cc1)C(=O)CC(C)C` (centres undefined), the affinity on Cannabinoid receptor 1, expressed as Ki, was 236 nM. The compound `CCCCN(CC(=O)N1c2ccccc2-n2cccc2C1c1ccc(F)cc1)C(=O)C(C)Cl` (centres undefined) returned a Ki on Cannabinoid receptor 1 of 162 nM.

For the compound `CCCCN(CC(=O)N1c2ccccc2-n2cccc2C1c1ccc(OC)cc1)C(=O)C1CC1` (centres undefined), the Ki at Cannabinoid receptor 1 was determined as 78 nM. Regarding `CCCCN(CC(=O)N1c2ccccc2-n2cccc2C1c1cc(OC)ccc1OC)C(=O)C(C)Cl` (centres undefined), the inhibition in assay [1] turned out to be 45%. In turn, `CCCCN(CC(=O)N1c2ccccc2-n2cccc2C1c1ccc(OC)cc1)C(=O)C(C)Cl` (centres undefined) came in with a Ki at Cannabinoid receptor 1 of 46 nM. Compound `COc1ccc(C2c3cccn3-c3ccccc3N2C(=O)CN(C)C(=O)C(C)Cl)cc1` (centres undefined) had an inhibition in assay [1] of 46%. The compound `CCCCN(CC(=O)N1c2ccccc2-n2cccc2C1CC)C(=O)C(C)Cl` (centres undefined) gave an inhibition in assay [1] of 14%.

`COc1ccc(C2c3cccn3-c3ccccc3N2C(=O)CNC(=O)C(C)Cl)cc1` (centres undefined): the inhibition in assay [1] is 25%. As for `CCCCN(CC(=O)N1c2ccccc2-n2cccc2C1c1ccc(OC)cc1)C(=O)C1CCCC1` (centres undefined), the Ki on Cannabinoid receptor 1 turned out to be 602 nM.
